From patent US5599548A, “Skin care compositions containing fatty acid amides and retinol or retinyl ester” (priority 1995, dated 1997)
Where two headings read alike, the source gives them in different places.

Columns and labels:
Human keratinocytes = test: 3H-Thymidine incorporation (keratinocyte proliferation); type: cell-based; conditions: for activity at 0.25 µM / activity at 0.025 µM / activity at 0.0025 µM: Homo sapiens, Keratinocyte; for activity at 0.25 µM / mean Thymidine incorp./μg protein ± s.d: 2.5 × 10^-7 M; for activity at 0.0025 µM: 2.5 × 10^-9 M; for effect on keratinocyte proliferation, in words: concentrations as in the respective Example
Description: (§1) Human keratinocytes, isolated from neonatal foreskin by trypsin treatment were grown in Dulbecco Modification Eagle (DME) Hams F12 (1:1) medium/10% fetal calf serum in the presence of irradiated 3T3 mouse fibroblasts for establishing dividing keratinocyte colonies. Cells were grown under the above condition until their second passage and kept frozen for future use. […] On day 7, when the cells were 80-90% confluent, they were trypsinized and plated in the serum-free medium for the various experiments.
The incorporation of […] by cultured keratinocytes was used as an assay of keratinocyte proliferation. Thymidine is one of four deoxynucleosides which are the monomeric units of DNA, the universal library of genetic information in the animal kingdom. Prior to cell division of a somatic cell such as a keratinocyte, the complete genome of the cell undergoing cell division is replicated. This involves large scale DNA synthesis by the cell and enables both daughter cells to receive identical copies of the genetic material. When ^3 H-thymidine is included in the culture media of keratinocytes which are synthesizing DNA in preparation for cell division then the labelled nucleoside is incorporated into the newly synthesized DNA. The extent of incorporation of ^3 H-thymidine into a population of cells is proportional to the rate of DNA synthesis by this population of cells and therefore an indication of their cellular proliferation.
Keratinocytes (that were cultured as described above) were plated in 24 well plates at a density of 40,000 cells per well in 1 ml media. After incubation for four days or until the cells were 60-70% confluent, the media was changed. Test compounds were added (in triplicate) to the wells 24 hours after the media change, and four hours later 1μCi^3 H-Thymidine in 50 μl media was added per well. Cells were incubated for a further 24 hours. Media was removed from the cells, 10% ice cold trichloroacetic acid (TCA) added and plates were incubated on ice for 30 minutes. Cells were washed five times with 5% TCA and allowed to dissolve in 500 μl 0.1M NaOH for at least one hour (usually overnight). The preparations were neutralized with 0.1M HCl; 50 μl of the cell preparation was used to determine total protein content. Disintegrations per minute (DPM) from ^3 H labelling of DNA was determined by liquid scintillation counting of […] of the cell preparation. Thymidine incorporation results were expressed as DPM/μg protein.

[1] = tested on: TGase I (keratinocyte transglutaminase level); test: Transglutaminase (TGase I) ELISA assay (keratinocyte differentiation); type: cell-based, human; conditions: for effect on keratinocyte TG1 levels / differentiation, in words: concentrations as in the respective Example
Description: as §1
During the process of terminal differentiation in the epidermis, a 15 nm thick layer of protein, known as the cornified envelope (CE) is formed on the inner surface of the cell periphery. The CE is composed of numerous distinct proteins which have been cross-linked together by the formation of N^ε -(γ-glutamyl) lysine isodipeptide bonds catalyzed by the action of at least two different transglutaminases (TGases) expressed in the epidermis. TGase I is expressed in abundance in the differentiated layers of the epidermis, especially the granular layer, but is absent in the undifferentiated basal epidermis. Thus TGase I is a useful marker of epidermal keratinocyte differentiation with high TGase I levels indicating a more differentiated state. An ELISA based TGase I assay, using a TGase I antibody, was used to assess the state of differentiation of the cultured keratinocytes in the examples that follow.
Keratinocytes (cultured as described above) were plated in 96 well plates at a density of 3,000 cells per well in 200 μl media. After incubation for four days the media was changed to media containing test compounds (six replicates per test). The cells were cultured for a further 72 hours after which time the media was aspirated and the plates stored at -70° C. Plates were removed from the freezer, and the cells washed with PBS. 100 μl sterile water was added and the cells were freeze fractured by freezing at -70° C. then thawing. The cells were incubated for one hour at room temperature (R/T) with PBS/3% BSA (wash buffer, bovine serum albumin), then rinsed with a fresh aliquot of wash buffer. Cells were incubated with 50 μl of primary antibodies monoclonal anti-human transglutaminase (IgG) obtained from Amersham (mouse) diluted 1:300 in wash buffer for one hour, 37° C. then rinsed two times with wash buffer. Cells were then incubated with 50 μl of secondary antibody (Feb fragment, peroxidase conjugated anti-mouse IgG obtaining from Amersham) diluted 1:200 in wash buffer for one hour at 37° C., then rinsed two times with wash buffer. Cells were incubated with substrate solution (4 mg o-phenylene diamine and 3.3 μl 30% H2 O2 in 10 ml 0.1M citrate buffer pH 5.0) for five minutes, R/T, in darkness (under aluminum foil). The reaction was stopped by the addition of 50 μl 4N H2 SO4. The absorbance of samples was read at 492 nm in the plate reader. Out of the six replicates, four were treated with both antibodies, two were treated only with the secondary antibody (i.e., to determine background binding of enzyme conjugated Ab). TGase levels were determined by subtracting background from the readings from each treatment and determining mean ±s.d. for the replicates exposed to both Ab.

[2] = 24 h, Table 7A, 24 h, n = 9, read-out: mean Thymidine incorp/μg protein ± s.d
[3] = 24 h, Table 7A, 24 h, n = 9, read-out: thymidine incorporation, % control

SMILES: CC1=C(/C=C/C(C)=C/C=C/C(C)=C/CO)C(C)(C)CCC1 [ROH, retinol]
- activity at 0.25 µM (Human keratinocytes; 24 h, Table 1A, first RA/ROH pair, 24 h, n = 3, read-out: thymidine incorporation, % control): 106%
- activity at 0.25 µM (Human keratinocytes; 24 h, Table 1A, second RA/ROH pair, 24 h, n = 3, read-out: thymidine incorporation, % control): 97%
- activity at 0.25 µM (Human keratinocytes; 24 h, Table 1A, third RA/ROH pair, 24 h, n = 3, read-out: thymidine incorporation, % control): 94%
- activity at 0.025 µM (Human keratinocytes; 24 h, Table 2A, RA, ROH 2.5 × 10^-8 M, linoleoyl-DEA 10^-9 M, alone or combined, 24 h, n = 9, read-out: thymidine incorporation, % control): 102%
- activity at 0.025 µM (Human keratinocytes; 24 h, Table 2A, RA, ROH 2.5 × 10^-8 M, linoleoyl-DEA 10^-9 M, alone or combined, 24 h, normalized to ethanol control, n = 9, read-out: mean Thymidine incorp./μg protein ± s.d): 102 ± 15.2%
- activity at 0.025 µM (Human keratinocytes; 24 h, Table 4C, RA, retinol 2.5 × 10^-8 M, palmitoyl-MEA 10^-6 M, alone or combined, n = 3, read-out: thymidine incorporation, % control): 101%
- activity at 0.025 µM (Human keratinocytes; 24 h, Table 4D, RA, ROH 2.5 × 10^-8 M, linoleoyl-MEA 10^-9 M, alone or combined, 24 h, n = 3, read-out: thymidine incorporation, % control): 106%
- activity at 0.025 µM (Human keratinocytes; 24 h, Table 4D, RA, ROH 2.5 × 10^-8 M, linoleoyl-MEA 10^-9 M, alone or combined, 24 h, normalized to ethanol control, n = 3, read-out: mean Thymidine incorp./μg protein ± s.d): 106 ± 27%
- activity at 0.25 µM (Human keratinocytes; [2]): 102 ± 16.5%
- activity at 0.25 µM (Human keratinocytes; [3]): 102%
- activity at 0.025 µM (Human keratinocytes; 24 h, Table 7A, 2.5 × 10^-8 M, 24 h, n = 9, read-out: mean Thymidine incorp/μg protein ± s.d): 101 ± 15.2%
- activity at 0.025 µM (Human keratinocytes; 24 h, Table 7A, 2.5 × 10^-8 M, 24 h, n = 9, read-out: thymidine incorporation, % control): 101%
- activity at 0.0025 µM (Human keratinocytes; [2]): 99.5 ± 12.3%
- activity at 0.0025 µM (Human keratinocytes; [3]): 100%
- activity at 0.025 µM (Human keratinocytes; Table 4C, RA, retinol 2.5 × 10^-8 M, palmitoyl-MEA 10^-6 M, alone or combined, control = 1.000, n = 3, read-out: mean Thymidine incorp./μg protein ± s.d): 101 ± 8.8%
- mean Thymidine incorp./μg protein ± s.d (Human keratinocytes; Table 1A, first RA/ROH pair, 24 h, n = 3): 2218 ± 73 DPM/μg protein
- mean Thymidine incorp./μg protein ± s.d (Human keratinocytes; Table 1A, second RA/ROH pair, 24 h, n = 3): 2034 ± 46 DPM/μg protein
- mean Thymidine incorp./μg protein ± s.d (Human keratinocytes; Table 1A, third RA/ROH pair, 24 h, n = 3): 1977 ± 19 DPM/μg protein
- effect on keratinocyte proliferation, in words (Human keratinocytes): minor, non-significant stimulatory effect on keratinocyte proliferation
- effect on keratinocyte proliferation, in words (Human keratinocytes; listed as Retinol): completely ineffective at increasing keratinocyte proliferation
- effect on keratinocyte proliferation, in words (Human keratinocytes; listed as retinol): Neither 10^-8 M palmitoyl-MEA nor 2.5×10^-8 M retinol had an effect on keratinocyte proliferation
- activity at 0.25 µM ([1]; Homo sapiens, Keratinocyte, 72 h, Table 1B, 2.5 × 10^-7 M, 72 h, n = 3, read-out: Transglutaminase level, % control): 67%
- activity at 0.025 µM ([1]; Homo sapiens, Keratinocyte, 72 h, Table 1B, 2.5 × 10^-8 M, 72 h, n = 3, read-out: Transglutaminase level, % control): 86%
- activity at 0.0025 µM ([1]; Homo sapiens, Keratinocyte, 72 h, Table 1B, 2.5 × 10^-9 M, 72 h, n = 3, read-out: Transglutaminase level, % control): 97%
- activity at 0.25 µM ([1]; Homo sapiens, Keratinocyte, 72 h, Table 2B, RA, ROH 2.5 × 10^-7 M, linoleoyl-DEA 10^-6 M, alone or combined, 72 h, n = 9, read-out: TGase (TG1) level, % control): 59%
- activity at 0.25 µM ([1]; Homo sapiens, Keratinocyte, 72 h, Table 6A, RA, ROH 2.5 × 10^-7 M, formamide 10^-7 M, alone or combined, 72 h, n = 3, read-out: TGase (TG1) level, % control): 71%
- activity at 0.25 µM ([1]; Homo sapiens, Keratinocyte, 72 h, Table 6B, RA, ROH 2.5 × 10^-7 M, acetamide 10^-7 M, alone or combined, 72 h, n = 3, read-out: TGase (TG1) level, % control): 65%
- activity at 0.25 µM ([1]; Homo sapiens, Keratinocyte, 72 h, Table 6C, RA, ROH 2.5 × 10^-7 M, pentanoyl-DEA 10^-7 M, alone or combined, 72 h, n = 3, read-out: TGase (TG1) level, % control): 67%
- activity at 0.25 µM ([1]; Homo sapiens, Keratinocyte, Table 4A, RA, retinol 2.5 × 10^-7 M, cocoyl-DEA 10^-7 M, alone or combined, n = 3, read-out: TGase (TG1) level, % control): 82%
- activity at 0.025 µM ([1]; Homo sapiens, Keratinocyte, Table 4B, RA, retinol 2.5 × 10^-8 M, cocoyl-MEA 10^-8 M, alone or combined, n = 3, read-out: TGase (TG1) level, % control): 44%
- activity at 0.25 µM ([1]; Homo sapiens, Keratinocyte, Table 5A, RA, retinol 2.5 × 10^-7 M, linoleic acid 10^-6 M, alone or combined, n = 3, read-out: TGase (TG1) level, % control): 39%
- activity at 0.025 µM ([1]; Homo sapiens, Keratinocyte, Table 5B, RA, retinol 2.5 × 10^-8 M, methyl linoleate 10^-8 M, alone or combined, n = 3, read-out: TGase (TG1) level, % control): 69%
- mean Transglutaminase ELISA level ± s.d ([1]; Table 1B, 2.5 × 10^-7 M, 72 h, n = 3): 0.290 ± 0.043
- mean Transglutaminase ELISA level ± s.d ([1]; Table 1B, 2.5 × 10^-8 M, 72 h, n = 3): 0.371 ± 0.054
- mean Transglutaminase ELISA level ± s.d ([1]; Table 1B, 2.5 × 10^-9 M, 72 h, n = 3): 0.416 ± 0.035
- mean TGase ± s.d ([1]; Table 2B, RA, ROH 2.5 × 10^-7 M, linoleoyl-DEA 10^-6 M, alone or combined, 72 h, normalized to ethanol control, n = 9): 0.594 ± 0.542
- mean TGase ± s.d ([1]; Table 4A, RA, retinol 2.5 × 10^-7 M, cocoyl-DEA 10^-7 M, alone or combined, n = 3): 0.145 ± 0.070
- mean TGase ± s.d ([1]; Table 4B, RA, retinol 2.5 × 10^-8 M, cocoyl-MEA 10^-8 M, alone or combined, n = 3): 0.054 ± 0.013
- mean TGase ± s.d ([1]; Table 5A, RA, retinol 2.5 × 10^-7 M, linoleic acid 10^-6 M, alone or combined, n = 3): 0.042 ± 0.112
- mean TGase ± s.d ([1]; Table 5B, RA, retinol 2.5 × 10^-8 M, methyl linoleate 10^-8 M, alone or combined, n = 3): 0.199 ± 0.093
- mean TGase level ± s.d ([1]; Table 6A (Effect on Keratinocyte TGase), RA, ROH 2.5 × 10^-7 M, formamide 10^-7 M, alone or combined, 72 h, n = 3): 0.351 ± 0.046
- mean TGase level ± s.d ([1]; Table 6B (Effect on Keratinocyte TGase), RA, ROH 2.5 × 10^-7 M, acetamide 10^-7 M, alone or combined, 72 h, n = 3): 0.317 ± 0.043
- mean TGase level ± s.d ([1]; Table 6C (Effect on Keratinocyte TGase), RA, ROH 2.5 × 10^-7 M, pentanoyl-DEA 10^-7 M, alone or combined, 72 h, n = 3): 0.290 ± 0.043
- effect on keratinocyte TG1 levels / differentiation, in words ([1]; listed as Retinol): significantly less effective than retinoic acid at inhibiting keratinocyte differentiation
- effect on keratinocyte TG1 levels / differentiation, in words ([1]; listed as retinol): decrease in transglutaminase level was dose dependent
